Measurements reported in patent publication US20250122183A1 (Pfizer Inc., priority 2023, published 2025).
Like-named read-outs stand apart in the source and are kept apart here.

Columns and labels:
KAT6A Full length enzyme = KAT6A Full length enzyme (Homo sapiens (Human), UniProt Q92794); test: KAT6A assay (SAMDI-MS acetylation of H3 1-21 peptide); format: biochemical; conditions: replicate number in parentheses
[1] = target: KAT7+JADE1+EAF6+ING5 4 protein complex (Homo sapiens (Human), UniProt O95251); test: KAT7 JADE1 assay (SAMDI-MS acetylation of H3 1-21 peptide); format: biochemical; conditions: replicate number in parentheses
[2] = Morrison equation fit, read-out: KAT6A Ki (nM) (replicate number)
[3] = Morrison equation fit, read-out: KAT7 JADE1 Ki (nM) (replicate number)
[4] = read-out: KAT6A Ki (nM) (replicate)
[5] = read-out: KAT7 JADE1 Ki (nM) (replicate)

Chain of KAT6A Full length enzyme (Q92794 other isoform, or with tags, fused parts or gaps): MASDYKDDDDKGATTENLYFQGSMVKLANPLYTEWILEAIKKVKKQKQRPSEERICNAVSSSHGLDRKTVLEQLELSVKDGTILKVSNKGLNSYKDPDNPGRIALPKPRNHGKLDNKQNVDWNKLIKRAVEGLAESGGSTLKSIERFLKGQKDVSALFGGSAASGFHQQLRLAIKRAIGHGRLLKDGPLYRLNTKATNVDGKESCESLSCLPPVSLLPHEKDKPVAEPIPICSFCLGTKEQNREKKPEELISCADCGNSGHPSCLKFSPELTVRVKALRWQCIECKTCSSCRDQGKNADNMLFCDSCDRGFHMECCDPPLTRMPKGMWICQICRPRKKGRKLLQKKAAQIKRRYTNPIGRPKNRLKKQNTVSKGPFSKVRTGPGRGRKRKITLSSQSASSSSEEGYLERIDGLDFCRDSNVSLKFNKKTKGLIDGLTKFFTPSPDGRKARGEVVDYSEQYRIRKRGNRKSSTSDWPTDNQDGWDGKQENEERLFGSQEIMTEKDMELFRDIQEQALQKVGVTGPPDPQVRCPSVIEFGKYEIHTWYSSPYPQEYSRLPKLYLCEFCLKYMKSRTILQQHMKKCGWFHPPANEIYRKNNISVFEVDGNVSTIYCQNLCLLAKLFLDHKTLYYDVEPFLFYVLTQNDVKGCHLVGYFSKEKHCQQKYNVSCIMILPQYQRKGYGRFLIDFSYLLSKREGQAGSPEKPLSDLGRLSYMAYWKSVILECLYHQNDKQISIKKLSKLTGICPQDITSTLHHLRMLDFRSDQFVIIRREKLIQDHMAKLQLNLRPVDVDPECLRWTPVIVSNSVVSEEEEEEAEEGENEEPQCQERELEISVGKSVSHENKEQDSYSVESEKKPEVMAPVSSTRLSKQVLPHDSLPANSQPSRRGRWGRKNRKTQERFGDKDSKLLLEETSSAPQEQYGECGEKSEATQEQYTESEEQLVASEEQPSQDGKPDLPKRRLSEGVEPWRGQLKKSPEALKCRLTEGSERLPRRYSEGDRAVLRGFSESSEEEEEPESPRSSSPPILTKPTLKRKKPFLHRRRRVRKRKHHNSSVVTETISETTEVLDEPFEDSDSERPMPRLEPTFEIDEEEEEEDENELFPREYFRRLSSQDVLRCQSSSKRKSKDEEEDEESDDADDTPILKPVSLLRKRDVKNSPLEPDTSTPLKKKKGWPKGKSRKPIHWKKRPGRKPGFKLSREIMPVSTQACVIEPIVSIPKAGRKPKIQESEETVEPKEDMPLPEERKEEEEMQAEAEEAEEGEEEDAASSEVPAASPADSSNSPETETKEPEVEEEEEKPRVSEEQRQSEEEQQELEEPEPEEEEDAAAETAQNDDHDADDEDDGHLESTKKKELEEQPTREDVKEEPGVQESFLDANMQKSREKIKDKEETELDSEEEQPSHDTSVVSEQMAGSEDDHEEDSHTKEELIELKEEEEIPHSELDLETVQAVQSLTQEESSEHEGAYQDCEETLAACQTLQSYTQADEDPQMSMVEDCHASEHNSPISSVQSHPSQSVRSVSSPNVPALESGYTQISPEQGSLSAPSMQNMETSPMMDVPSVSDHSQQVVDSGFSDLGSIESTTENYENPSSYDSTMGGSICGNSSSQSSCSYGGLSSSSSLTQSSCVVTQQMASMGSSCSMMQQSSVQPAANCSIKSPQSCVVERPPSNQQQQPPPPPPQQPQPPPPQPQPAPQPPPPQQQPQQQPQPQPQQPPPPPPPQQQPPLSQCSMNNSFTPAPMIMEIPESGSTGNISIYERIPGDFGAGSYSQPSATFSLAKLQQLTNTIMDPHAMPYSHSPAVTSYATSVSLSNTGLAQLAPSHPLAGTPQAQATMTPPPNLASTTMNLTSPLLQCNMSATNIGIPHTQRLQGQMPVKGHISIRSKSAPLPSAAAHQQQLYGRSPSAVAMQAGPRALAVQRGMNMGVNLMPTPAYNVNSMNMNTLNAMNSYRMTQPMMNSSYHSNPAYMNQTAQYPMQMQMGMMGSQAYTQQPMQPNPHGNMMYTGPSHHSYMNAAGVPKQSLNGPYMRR

Row | Compound | Ki (KAT6A Full length enzyme; [2]) [nM] | Ki [1, 3] [nM] | Ki (KAT6A Full length enzyme; [4]) [nM] | Ki [1, 5] [nM]
1 | CCN1CCCC1c1cc(OC)c(S(=O)(=O)Nc2noc3cc(Nc4cc(C5CC5)[nH]n4)c(OC)cc23)c(OC)c1 (single isomer, unassigned) [Example 190, N-{6-[(5-cyclopropyl-1 H-pyrazol-3-yl)amino]-5-methoxy-1,2-benzoxazol-3-yl}-4-(1-ethylpyrrolidin-2-yl)-2,6-dimethoxybenzene-1-sulfonamide] | 5.6 | 54.5 |  | 
2 | COc1cc2c(NS(=O)(=O)c3c(OC)cc(C(=O)N4CC[C@@H](F)C4)cc3OC)noc2cc1Nc1cc(C2CC2)n[nH]1 [Example 258, N-{6-[(3-cyclopropyl-1H-pyrazol-5-yl)amino]-5-methoxy-1,2-benzoxazol-3-yl}-4-[(3R)-3-fluoropyrrolidine-1-carbonyl]-2,6-dimethoxybenzene-1-sulfonamide] |  |  | 1 | 5.9
3 | COc1cc2c(NS(=O)(=O)c3c(OC)cc(C4CCCCN4C)cc3OC)noc2cc1Nc1cc(C2CC2)n[nH]1 (single isomer, unassigned) [Example 171, N-{6-[(3-cyclopropyl-1 H-pyrazol-5-yl)amino]-5-methoxy-1,2-benzoxazol-3-yl}-2,6-dimethoxy-4-(1-methylpiperidin-2-yl)benzene-1-sulfonamide] | 2.1 | 8.4 |  | 
4 | COc1cc2c(NS(=O)(=O)c3c(OC)cc(C4CCCCO4)cc3OC)noc2cc1Nc1cc(C2CC2)n[nH]1 (single isomer, unassigned) [Example 142, N-{6-[(3-cyclopropyl-1 H-pyrazol-5-yl)amino]-5-methoxy-1,2-benzoxazol-3-yl}-2,6-dimethoxy-4-(oxan-2-yl)benzene-1-sulfonamide] | 0.7 | 6.7 |  | 
5 | COc1cc2c(NS(=O)(=O)c3c(OC)cc(-c4cc5n(n4)CCOC5)cc3OC)noc2cc1Nc1cc(C2CC2)n[nH]1 [Example 220, N-{6-[(3-cyclopropyl-1H-pyrazol-5-yl)amino]-5-methoxy-1,2-benzoxazol-3-yl}-4-(6,7-dihydro-4H-pyrazolo[5,1-c][1,4]oxazin-2-yl)-2,6-dimethoxybenzene-1-sulfonamide] | 0.4 | 4 |  | 
6 | COc1cc2c(NS(=O)(=O)c3c(OC)cc(C4C[C@H](C)CN4C)cc3OC)noc2cc1Nc1cc(C2CC2)n[nH]1 (stereo partly drawn) [Example 182, N-{6-[(3-cyclopropyl-1H-pyrazol-5-yl)amino]-5-methoxy-1,2-benzoxazol-3-yl}-4-[(4S)-1,4-dimethylpyrrolidin-2-yl]-2,6-dimethoxybenzene-1-sulfonamide] | 0.8 | 6.4 |  | 
7 | COc1cc2c(NS(=O)(=O)c3c(OC)cc(N4C(=O)CCC4C)cc3OC)noc2cc1Nc1cc(C2CC2)n[nH]1 (single isomer, unassigned) [Example 244, N-{6-[(3-cyclopropyl-1 H-pyrazol-5-yl)amino]-5-methoxy-1,2-benzoxazol-3-yl}-2,6-dimethoxy-4-(2-methyl-5-oxopyrrolidin-1-yl)benzene-1-sulfonamide] | 0.2 | 1.3 |  | 
8 | CCN1CCCC1c1cc(OC)c(S(=O)(=O)Nc2noc3cc(Nc4cc(C5CC5)[nH]n4)c(OC)cc23)c(OC)c1 (single isomer, unassigned) [Example 191, N-{6-[(5-cyclopropyl-1 H-pyrazol-3-yl)amino]-5-methoxy-1,2-benzoxazol-3-yl}-4-(1-ethylpyrrolidin-2-yl)-2,6-dimethoxybenzene-1-sulfonamide] | 2.3 | 15.4 |  | 
9 | COc1cccc(OC)c1S(=O)(=O)Nc1noc2cc(NC3CCCC3)cc(OC)c12 [Example 12, N-[6-(cyclopentylamino)-4-methoxy-1,2-benzoxazol-3-yl]-2,6-dimethoxybenzene-1-sulfonamide] | 25.6 | > 2340 |  | 
10 | COc1cc2c(NS(=O)(=O)c3c(OC)cccc3OC)noc2cc1Nc1ccn(C(C)C)n1 [Example 53, 2,6-dimethoxy-N-(5-methoxy-6-{[1-(propan-2-yl)-1H-pyrazol-3-yl]amino}-1,2-benzoxazol-3-yl)benzene-1-sulfonamide] | 19.8 | 441 |  | 
11 | COc1cc2c(NS(=O)(=O)c3c(OC)cc(C4CN(C)CCC4(F)F)cc3OC)noc2cc1Nc1cc(C2CC2)n[nH]1 (single isomer, unassigned) [Example 175, N-{6-[(3-cyclopropyl-1 H-pyrazol-5-yl)amino]-5-methoxy-1,2-benzoxazol-3-yl}-4-(4,4-difluoro-1-methylpiperidin-3-yl)-2,6-dimethoxybenzene-1-sulfonamide] | 0.4 | 1 |  | 
12 | COc1cc2c(NS(=O)(=O)c3c(OC)cc(C(=O)N4CCC[C@@H](F)C4)cc3OC)noc2cc1Nc1cc(C2CC2)n[nH]1 [Example 260, N-{6-[(3-cyclopropyl-1H-pyrazol-5-yl)amino]-5-methoxy-1,2-benzoxazol-3-yl}-4-[(3R)-3-fluoropiperidine-1-carbonyl]-2,6-dimethoxybenzene-1-sulfonamide] |  |  | 1 | 6.7
13 | COc1cc2c(NS(=O)(=O)c3c(OC)cc(-c4ncc(C#N)cn4)cc3OC)noc2cc1Nc1cc(C2CC2)n[nH]1 [Example 224, 4-(5-cyanopyrimidine-2-yl)-N-{6-[(3-cyclopropyl-1 H-pyrazol-5-yl)amino]-5-methoxy-1,2-benzoxazol-3-yl}-2,6-dimethoxybenzene-1-sulfonamide] | 1.5 | 7.2 |  | 
14 | COc1cc2c(NS(=O)(=O)c3c(OC)cc(C4CCN([C@@H]5CCOC5)C4)cc3OC)noc2cc1Nc1cc(C2CC2)n[nH]1 (single isomer, unassigned) [Example 161] | 1.2 | 5.5 |  | 
15 | COc1cc2c(NS(=O)(=O)c3c(OC)cc(C4CCOC4)cc3OC)noc2cc1Nc1cc(C2CC2)n[nH]1 (single isomer, unassigned) [Example 267, N-{6-[(3-cyclopropyl-1H-pyrazol-5-yl)amino]-5-methoxy-1,2-benzoxazol-3-yl}-2,6-dimethoxy-4-(oxolan-3-yl)benzene-1-sulfonamide] |  |  | 1.3 | 9.3
16 | CCc1nc(Nc2cc3onc(NS(=O)(=O)c4c(OC)cccc4OC)c3cc2OC)no1 [Example 43, N-{6-[(5-ethyl-1,2,4-oxadiazol-3-yl)amino]-5-methoxy-1,2-benzoxazol-3-yl}-2,6-dimethoxybenzene-1-sulfonamide] | 55.5 | > 2340 |  | 
17 | COc1cc2c(NS(=O)(=O)c3c(OC)cc([C@@H]4CCCN4C)cc3OC)noc2cc1Nc1cc(C2CC2)n[nH]1 [Example 189] | 3.7 | 20.8 |  | 
18 | COc1cc2c(NS(=O)(=O)c3c(OC)cc(C4COCCN4C)cc3OC)noc2cc1Nc1cc(C2CC2)[nH]n1 (single isomer, unassigned) [Example 179, N-{6-[(5-cyclopropyl-1 H-pyrazol-3-yl)amino]-5-methoxy-1,2-benzoxazol-3-yl}-2,6-dimethoxy-4-(4-methylmorpholin-3-yl)benzene-1-sulfonamide] | 1 | 8.6 |  | 
19 | COc1cc2c(NS(=O)(=O)c3c(OC)cc(-c4ncc(N(C)C)cn4)cc3OC)noc2cc1Nc1cc(C2CC2)n[nH]1 [Example 218, N-{6-[(3-cyclopropyl-1H-pyrazol-5-yl)amino]-5-methoxy-1,2-benzoxazol-3-yl}-4-[5-(dimethylamino)pyrimidin-2-yl]-2,6-dimethoxybenzene-1-sulfonamide] | 0.1 | 0.4 |  | 
20 | COc1cc2c(NS(=O)(=O)c3c(OC)cc(C4CN(C)CCC4(F)F)cc3OC)noc2cc1Nc1cc(C2CC2)[nH]n1 (stereo not shown) [Example 177, N-{6-[(5-cyclopropyl-1 H-pyrazol-3-yl)amino]-5-methoxy-1,2-benzoxazol-3-yl}-4-[4,4-difluoro-1-(^2H3)methylpiperidin-3-yl]-2,6-dimethoxybenzene-1-sulfonamide] | 0.1 | 0.2 |  | 
21 | COc1cc2c(NS(=O)(=O)c3c(OC)cc(C4CCCN4CC(F)F)cc3OC)noc2cc1Nc1cc(C2CC2)n[nH]1 (single isomer, unassigned) [Example 166, N-{6-[(3-cyclopropyl-1 H-pyrazol-5-yl)amino]-5-methoxy-1,2-benzoxazol-3-yl}-4-[1-(2,2-difluoroethyl)pyrrolidin-2-yl]-2,6-dimethoxybenzene-1-sulfonamide] | 1.6 | 8.5 |  | 
22 | COc1cc2c(NS(=O)(=O)c3c(OC)cc(C4CCCN(CC(F)F)C4)cc3OC)noc2cc1Nc1cc(C2CC2)n[nH]1 (single isomer, unassigned) [Example 168, N-{6-[(3-cyclopropyl-1 H-pyrazol-5-yl)amino]-5-methoxy-1,2-benzoxazol-3-yl}-4-[1-(2,2-difluoroethyl)piperidin-3-yl]-2,6-dimethoxybenzene-1-sulfonamide] | 0.8 | 2.7 |  | 
23 | CCc1cc(Nc2cc3onc(NS(=O)(=O)c4c(OC)cc(-c5nccn5C)cc4OC)c3cc2OC)[nH]n1 [Example 237, N-{6-[(3-ethyl-1H-pyrazol-5-yl)amino]-5-methoxy-1,2-benzoxazol-3-yl}-2,6-dimethoxy-4-(1-methyl-1H-imidazol-2-yl)benzene-1-sulfonamide] | 1.4 | 15.4 |  | 
24 | COc1cc2c(NS(=O)(=O)c3c(OC)cc(C4CCCN(CC(F)F)C4)cc3OC)noc2cc1Nc1cc(C2CC2)n[nH]1 (single isomer, unassigned) [Example 167, N-{6-[(3-cyclopropyl-1 H-pyrazol-5-yl)amino]-5-methoxy-1,2-benzoxazol-3-yl}-4-[1-(2,2-difluoroethyl)piperidin-3-yl]-2,6-dimethoxybenzene-1-sulfonamide] | 0.9 | 4 |  | 
25 | COc1cc2c(NS(=O)(=O)c3c(OC)cc(C4CCN([C@H]5CCOC5)C4)cc3OC)noc2cc1Nc1cc(C2CC2)n[nH]1 (single isomer, unassigned) [Example 163] | 1.4 | 8.2 |  | 
26 | COc1cc2c(NS(=O)(=O)c3c(OC)cccc3OC)noc2cc1Nc1[nH]nc(C)c1C#N [Example 45, N-{6-[(4-cyano-3-methyl-1H-pyrazol-5-yl)amino]-5-methoxy-1,2-benzoxazol-3-yl}-2,6-dimethoxybenzene-1-sulfonamide] | 2.3 | 804 |  | 
